According to US7728020B2, “Amino acid derivatives” (Novartis AG, priority 2004, dated 2010):
pEC50: −log10 of the molar value.

Key:
[1] = target: T1, human S1P receptor EDG-8 (S1P5) (Homo sapiens, UniProt Q9H228); test: GTP[γ-35S] binding SPA, S1P receptor profiling (S1P5); format: biochemical; parameters: key to S1P5 mode of action: Agon = agonist; conditions: GTP[γ-35S] SPA
T1 construct: expressed in transfected cells
Experimental: (§1) Sphingosine-1-phosphate (SIP) Receptor Profiling
(§2) Agonist activities of compounds are tested on the human S1P receptors EDG-1 (S1P1), EDG-3 (S1P3), EDG-5 (S1P2), EDG-6 (S1P4) and EDG-8 (S1P5). […] The assay technology used is SPA (scintillation proximity based assay). Briefly, DMSO dissolved compounds are serially diluted and added to SPA-based (Amersham-Pharmacia) immobilised S1P receptor expressing membrane protein (10-20 μg/well) in the presence of 50 mM Hepes, 100 mM NaCl, 10 mM MgCl2, 10 μM GDP, 0.1% fat free BSA and 0.2 nM GTP [γ^35S] (1200 Ci/mmol). After incubation in 96 well microtiterplates at RT for 120 min, unbound GTP [γ^35S] is separated by a centrifugation step. Luminescence of SPA beads triggered by membrane bound GTP [γ^35S] is quantified with a TOPcount plate reader (Packard). EC50s are calculated using standard curve fitting software. In this assay, the compounds of formula I have a binding affinity to S1P1 receptor <50 nM.

[2] = test system: peripheral blood lymphocytes; test: Blood lymphocyte depletion; format: in vivo; conditions: rats, 3.2 mg/kg p.o. after 6 h
Experimental: B. In vivo: Blood Lymphocyte Depletion
A compound of formula I or the vehicle is administered orally by gavage to rats. Tail blood for hematological monitoring is obtained on day −1 to give the baseline individual values, and at 2, 6, 24, 48 and 72 hours after application. In this assay, the compounds of formula I deplete peripheral blood lymphocytes when administered at a dose of 0.03 to 3 mg/kg. For example, following results are obtained: depletion of peripheral blood lymphocytes by more than 50%.

[3] = target: T2, human S1P receptor EDG-6 (S1P4) (Homo sapiens, UniProt O95977); test: GTP[γ-35S] binding SPA, S1P receptor profiling (S1P4); format: biochemical; parameters: key to S1P4 mode of action: Agon = agonist; conditions: GTP[γ-35S] SPA
T2 construct: expressed in transfected cells
T2 sequence (O95977 1-384): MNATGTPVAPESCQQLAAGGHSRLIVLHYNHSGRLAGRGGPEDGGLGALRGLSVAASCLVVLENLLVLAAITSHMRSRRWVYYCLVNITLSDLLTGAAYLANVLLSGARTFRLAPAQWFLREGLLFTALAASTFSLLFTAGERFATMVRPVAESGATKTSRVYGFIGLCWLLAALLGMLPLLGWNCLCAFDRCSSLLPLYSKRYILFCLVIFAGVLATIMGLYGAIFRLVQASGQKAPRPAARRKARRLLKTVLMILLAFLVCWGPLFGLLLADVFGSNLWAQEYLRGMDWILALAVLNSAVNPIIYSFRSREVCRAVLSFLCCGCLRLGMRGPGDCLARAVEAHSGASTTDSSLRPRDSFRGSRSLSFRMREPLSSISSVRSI
Experimental: as §1, §2

[4] = target: T3, human S1P receptor EDG-3 (S1P3) (Homo sapiens, UniProt Q99500); test: GTP[γ-35S] binding SPA, S1P receptor profiling (S1P3); format: biochemical; parameters: key to S1P3 mode of action: Agon = agonist; conditions: GTP[γ-35S] SPA
T3 construct: expressed in transfected cells
Experimental: as §1, §2

[5] = target: T4, human S1P receptor EDG-1 (S1P1) (Homo sapiens, UniProt P21453); test: GTP[γ-35S] binding SPA, S1P receptor profiling (S1P1); format: biochemical; parameters: key to S1P1 mode of action: Agon = agonist; conditions: GTP[γ-35S] SPA
T4 construct: expressed in transfected cells
Experimental: as §1, §2

[6] = membranes of transfected CHO or RH7777 cells

T3 sequence (Q99500 whole entry): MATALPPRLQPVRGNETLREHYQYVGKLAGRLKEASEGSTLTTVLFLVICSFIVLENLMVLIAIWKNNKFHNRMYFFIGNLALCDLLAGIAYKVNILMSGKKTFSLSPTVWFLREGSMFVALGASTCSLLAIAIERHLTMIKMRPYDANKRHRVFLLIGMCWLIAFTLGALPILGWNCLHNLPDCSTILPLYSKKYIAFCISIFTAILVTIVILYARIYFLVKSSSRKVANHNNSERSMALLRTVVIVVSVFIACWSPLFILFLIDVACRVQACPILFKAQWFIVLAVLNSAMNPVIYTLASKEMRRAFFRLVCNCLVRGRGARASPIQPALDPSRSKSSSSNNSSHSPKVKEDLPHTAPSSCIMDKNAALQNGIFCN
T1 sequence (Q9H228 whole entry): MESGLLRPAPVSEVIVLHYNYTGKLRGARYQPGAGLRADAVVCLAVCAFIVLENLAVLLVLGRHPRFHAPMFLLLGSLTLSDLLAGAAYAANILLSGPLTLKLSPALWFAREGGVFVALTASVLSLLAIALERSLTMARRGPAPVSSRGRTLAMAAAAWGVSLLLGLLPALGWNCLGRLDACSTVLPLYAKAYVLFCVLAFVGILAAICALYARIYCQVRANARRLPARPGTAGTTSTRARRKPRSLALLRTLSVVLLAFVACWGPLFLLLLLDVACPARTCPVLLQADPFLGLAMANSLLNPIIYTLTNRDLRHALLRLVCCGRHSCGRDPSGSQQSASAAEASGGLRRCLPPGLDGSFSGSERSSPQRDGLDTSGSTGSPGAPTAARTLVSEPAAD
T4 sequence (P21453 whole entry): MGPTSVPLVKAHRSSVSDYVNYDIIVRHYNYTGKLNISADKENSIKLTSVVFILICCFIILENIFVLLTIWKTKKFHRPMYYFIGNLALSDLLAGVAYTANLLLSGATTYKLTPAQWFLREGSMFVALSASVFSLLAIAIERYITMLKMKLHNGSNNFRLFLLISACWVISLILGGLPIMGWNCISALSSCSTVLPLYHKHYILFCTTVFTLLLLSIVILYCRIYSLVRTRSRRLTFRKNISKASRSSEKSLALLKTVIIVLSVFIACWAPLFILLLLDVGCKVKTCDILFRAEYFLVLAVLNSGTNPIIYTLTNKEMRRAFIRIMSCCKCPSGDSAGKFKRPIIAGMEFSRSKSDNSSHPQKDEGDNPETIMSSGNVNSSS

S1P5 mode of action [1]: Agon
pEC50 [1, 6]: 6.69
S1P4 mode of action [3]: Agon
pEC50 [3, 6]: 6.93
S1P3 mode of action [4]: Agon
pEC50 [4, 6]: 6.68
S1P1 mode of action [5]: Agon
pEC50 [5, 6]: 7.96
SMILES: CCCCCCCOc1ccc(CC[C@@](C)(N)CC(=O)O)cc1 [Example 1, (R)-3-Amino-5-(4-heptyloxy-phenyl)-3-methyl-pentanoic acid]
depletion of peripheral blood lymphocytes [2]: more than 50%
